The structures appear in SMILES notation.

Holding throughout (assay type): in vivo
Experiment [1] relates to Septoria tritici. Briefly: Test A: wheat leaf blotch, preventive spray on wheat seedlings. The settings on record: 50 ppm, 100 = 100% disease control, 0 = no control relative to controls. In short, it runs like this:
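Compounds were suspended in acetone/water (50/50) with 250 ppm PEG400 and sprayed to run-off on wheat seedlings. The next day the seedlings were inoculated with Septoria tritici spores, held 48 h at 24 °C in saturated humidity, then 17 days at 20 °C. Disease control was rated 0–100 relative to controls.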

Experiment [2] has as its system Puccinia recondita f. sp. tritici. Briefly: Test B: wheat leaf rust, preventive spray on wheat seedlings. The settings on record: 50 ppm, 100 = 100% disease control, 0 = no control relative to controls. In outline:
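Compounds in acetone/water (50/50) with 250 ppm PEG400, sprayed to run-off on wheat seedlings at stated ppm; inoculated next day with P. recondita spores. Held 24 h saturated at 20° C., then 7 days in growth chamber at 20° C.; rating 0–100 = % disease control vs controls.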

In experiment [3] the test system is Blumeria graminis f. sp. tritici. As to the kind of experiment: Test C: wheat powdery mildew, preventive spray on wheat seedlings. The settings on record: 50 ppm, rated after 8 days, 100 = 100% disease control, 0 = no control. In outline:
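Compound dissolved in acetone (3% of final volume), then suspended in 50/50 acetone/water with 250 ppm PEG400 and sprayed to run-off on wheat seedlings. Inoculated next day with B. graminis f. sp. tritici spore dust, kept 8 days at 20° C; visual rating, 100 = full control, 0 = none, relative to controls.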

For experiment [4], the system named is Phakopsora pachyrhizi. As to the kind of experiment: Test D: Asian soybean rust, preventive spray on soybean seedlings. The settings on record: 50 ppm, 100 = 100% disease control, 0 = no control. In outline:
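Soybean seedlings sprayed to run-off with compound suspension (ppm, in 50/50 acetone/water with 250 ppm PEG400), inoculated next day with P. pachyrhizi spores, held 24 h saturated at 22°C then 8 days at 22°C. Visual rating 0-100% disease control relative to controls.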

Experiment [5] concerns Botrytis cinerea. As to the kind of experiment: Test E: tomato Botrytis, preventive spray on tomato seedlings. The settings on record: 50 ppm, 100 = 100% disease control, 0 = no control. In outline: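 Tomato seedlings sprayed to run-off with compound (ppm) in acetone/water with 250 ppm PEG400, then inoculated next day with B. cinerea spores. Held 48 h at 20 °C in saturated atmosphere, then 3 days at 24 °C. Visual rating 0–100% disease control relative to untreated controls.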

The subject of experiment [6] is Alternaria solani. As to the kind of experiment: Test F: tomato early blight, preventive spray on tomato seedlings. Conditions: 50 ppm, 100 = 100% disease control, 0 = no control. In short, it runs like this: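 Compounds in acetone/water (50/50) with 250 ppm PEG400, dosed in ppm, sprayed to run-off on tomato seedlings; next day inoculated with A. solani spores. Held 48 h saturated at 27° C, then 3 days at 20° C; visual rating 0–100% disease control relative to controls.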

In the case of `Cc1nn(C)c(Nc2c(F)cc(F)cc2[N+](=O)[O-])c1-c1ccc(C#N)cc1Cl` [Compound 120], the “Test A disease control rating (wheat leaf blotch)” value (shortened to “Test A disease control rating”) in experiment [1] was found to be 100%. Further, the “Test B disease control rating (wheat leaf rust)” value (shortened to “Test B disease control rating”) in experiment [2] is recorded as 100%. The “Test C disease control rating (wheat powdery mildew)” value (shortened to “Test C disease control rating”) in experiment [3] amounted to 89%. Further, the “Test D disease control rating (Asian soybean rust)” value (“Test D disease control rating” for short) in experiment [4] was determined as 44%. In addition, in experiment [5], the “Test E disease control rating (tomato Botrytis)” value (“Test E disease control rating” below) is given as 100%. For the same compound, the “Test F disease control rating (tomato early blight)” value (“Test F disease control rating” for short) in experiment [6] was 99%.
As to `Cc1nn(C)c(Nc2c(Cl)cccc2[N+](=O)[O-])c1-c1c(F)cc(F)cc1F` [Compound 158], the “Test A disease control rating” value in experiment [1] is listed as 99%. The “Test B disease control rating” value in experiment [2] is 100%. The “Test C disease control rating” value in experiment [3] turned out to be 99%. Also, the “Test D disease control rating” value in experiment [4] is 87%. Moreover, the “Test E disease control rating” value in experiment [5] is 99%. In addition, the “Test F disease control rating” value in experiment [6] is on record as 83%.
For the compound `Cc1cc(Cl)c(Nc2c(-c3c(F)cccc3F)c(C)nn2C)c([N+](=O)[O-])c1` [Compound 100], the “Test A disease control rating” value in experiment [1] was determined as 100%. The “Test B disease control rating” value in experiment [2] was 89%. Besides, the “Test C disease control rating” value in experiment [3] came to 21%. Moreover, the “Test D disease control rating” value in experiment [4] is 0%. The “Test E disease control rating” value in experiment [5] was 26%. The “Test F disease control rating” value in experiment [6] is 0%.
`COc1ccc(Nc2c(-c3c(F)cc(F)cc3F)c(C)nn2C)c([N+](=O)[O-])c1` [Compound 159]: the “Test A disease control rating” value in experiment [1] came out at 100%. Moreover, the “Test B disease control rating” value in experiment [2] is 100%. The “Test C disease control rating” value in experiment [3] is on record as 100%. Further, the “Test D disease control rating” value in experiment [4] worked out at 13%. Further, the “Test E disease control rating” value in experiment [5] is recorded as 99%. In addition, in experiment [6], the “Test F disease control rating” value stood at 99%.
As for `Cc1nn(C)c(Nc2ccc(F)cc2[N+](=O)[O-])c1-c1ccc(F)cc1Cl` [Compound 111, 4-(2-chloro-4-fluorophenyl)-N-(4-fluoro-2-nitrophenyl)-1,3-dimethyl-1H-pyrazol-5-amine], the pest or weed control at 50 ppm in experiment [1] (Zymoseptoria tritici, read-out: Test A disease control rating (wheat leaf blotch)) amounted to 100%; in experiment [2] (read-out: Test B disease control rating (wheat leaf rust)), 99%; in experiment [3] (Blumeria graminis, 192 h, read-out: Test C disease control rating (wheat powdery mildew)) it was 99%; in experiment [4] (Phakopsora pachyrhizi, read-out: Test D disease control rating (Asian soybean rust)) it was 0%; in experiment [5] (Botrytis cinerea, read-out: Test E disease control rating (tomato Botrytis)) it was 100%; in experiment [6] (Alternaria solani, read-out: Test F disease control rating (tomato early blight)) it was 93%.
For `Cc1nn(C)c(Nc2c(Cl)cc(F)cc2[N+](=O)[O-])c1-c1c(F)cccc1F` [Compound 76], the “Test A disease control rating” value in experiment [1] turned out to be 100%. Besides, the “Test B disease control rating” value in experiment [2] worked out at 99%. Further, the “Test C disease control rating” value in experiment [3] came to 95%. The “Test D disease control rating” value in experiment [4] came out at 25%. The “Test E disease control rating” value in experiment [5] is recorded as 87%. Besides, the “Test F disease control rating” value in experiment [6] is 0%.
As for `Cc1nn(C)c(Nc2c(F)cc(Cl)cc2[N+](=O)[O-])c1-c1ccc(Cl)cc1Cl` [Compound 11], the “Test A disease control rating” value in experiment [1] worked out at 100%. Also, the “Test B disease control rating” value in experiment [2] is 98%. The “Test C disease control rating” value in experiment [3] is 97%. For the same compound, the “Test D disease control rating” value in experiment [4] came out at 0%. In experiment [5], the “Test E disease control rating” value was 98%. Also, the “Test F disease control rating” value in experiment [6] was determined as 99%.
As to `COc1ccc(Nc2c(-c3ccc(C#N)cc3Cl)c(C)nn2C)c([N+](=O)[O-])c1` [Compound 124], the “Test A disease control rating” value in experiment [1] turned out to be 100%. For the same compound, the “Test B disease control rating” value in experiment [2] worked out at 100%. Also, the “Test C disease control rating” value in experiment [3] came out at 99%. For the same compound, the “Test D disease control rating” value in experiment [4] was found to be 25%. Further, in experiment [5], the “Test E disease control rating” value amounted to 100%. The “Test F disease control rating” value in experiment [6] amounted to 99%.

These data come from patent US12398107B2, “Fungicidal nitroanilino substituted pyrazoles” (FMC Corporation, priority 2018, dated 2025).
